Data as given in patent US10106625B2, “Pharmaceutical compositions with enhanced performance and improved processability” (HERCULES INCORPORATED, priority 2013, dated 2018).
Like-named read-outs stand apart in the source and are kept apart here. Each block holds one compound with its values, some of them ahead of it.

Key:
[1] = Kinetic solubility of spray dried dispersion with Ezetimibe in FaSSIF; type: physicochemical
Procedure: Hg reduced pressure for 24 hours.

[2] = 120 min
Procedure: Dissolution was performed using a pDISS Profiler™ (available from Pion Inc., MA, USA). Each spray-dried powder was weighed so that the volume adjusted equivalent of the typical daily dose of the drug was added to each vial and compensation was made for the drug load of the samples. For example, the target API was 9.5 mg for Felpdipine in 20 ml of FaSSIF. The spray dried sample containing 9.5 mg API of Felpdipine was weighed. For Ezetimibe, the spray dried sample containing 10 mg API was weighed. The weighed spray dried samples were added to 20 ml of FaSSIF in vials and then heated to 37° C. The vials were maintained at a constant stirring speed of 300 RPM. Dissolution measurements were taken by in situ fiber optic probes at various time points and these measurements were analyzed at the appropriate wavelength for dissolved API concentration. Based on the in situ measurement data, various solubility parameters were calculated.

[3] = cited from earlier work

C120 ([1]; Ezetimibe SDD, 60% drug load, API concentration at 120 minutes): 14 µg/mL
AUC120 ([1]; Ezetimibe SDD, 60% drug load, FaSSIF 37° C., API concentration over first 120 minutes): 1,626 μg * min/mL
AUC(Rel) ([1]; Ezetimibe, ratio of AUC120 of polymer/drug dispersion versus API alone): 1.0
Compound: O=C1[C@H](CC[C@H](O)c2ccc(F)cc2)[C@@H](c2ccc(O)cc2)N1c1ccc(F)cc1 [Ezetimibe API, Ezetimibe]

C120 [2]: 28 µg/mL
Compound: CCOC(=O)C1=C(C)NC(C)=C(C(=O)OC)C1c1cccc(Cl)c1Cl (centres unmarked) [Felodipine API, Felodipine]

Compound: CCOC(=O)N1c2ccc(C(F)(F)F)cc2[C@@H](N(Cc2cc(C(F)(F)F)cc(C(F)(F)F)c2)C(=O)OC)C[C@H]1CC [torcetrapib]
aqueous solubility [3]: less than 0.04 μg/ml
